Assay results published in patent US5705491A, “Adenosine deaminase inhibitor” (Nippon Zoki Pharmaceutical Co., Ltd., priority 1992, dated 1998).
pKi: −log10 of the molar value.

Key:
[1] = system: ischemic edema of hind paw of mice; test: Suppressive action against ischemic edema; type: in vivo, ICR-strain male mice
Protocol: 4. Suppressive Action against Ischemic Edema
The right hind paw of ICR-strain male mice (11 weeks of age) were fastened with a rubber band to stop the blood stream for 20 minutes, and then the rubber band was removed to recover the blood stream. The tested drug was administered intravenously before the treatment. Each of the right and left hind paws were weighed and the suppressive action was measured according to the weight difference between the treated and untreated paws.

[2] = target: T1, adenosine deaminase of type VII (mucous membrane of intestinal tract of calf) (Bos taurus, UniProt P56658); test: Adenosine deaminase inhibiting action; type: biochemical; conditions: 25° C., 0.05M phosphate buffer pH 7.5, adenosine substrate, 5 minutes, Lineweaver-Burk plots
T1 construct: from tissue; host or cells: mucous membrane of intestinal tract of calf
T1 sequence (P56658 1-363): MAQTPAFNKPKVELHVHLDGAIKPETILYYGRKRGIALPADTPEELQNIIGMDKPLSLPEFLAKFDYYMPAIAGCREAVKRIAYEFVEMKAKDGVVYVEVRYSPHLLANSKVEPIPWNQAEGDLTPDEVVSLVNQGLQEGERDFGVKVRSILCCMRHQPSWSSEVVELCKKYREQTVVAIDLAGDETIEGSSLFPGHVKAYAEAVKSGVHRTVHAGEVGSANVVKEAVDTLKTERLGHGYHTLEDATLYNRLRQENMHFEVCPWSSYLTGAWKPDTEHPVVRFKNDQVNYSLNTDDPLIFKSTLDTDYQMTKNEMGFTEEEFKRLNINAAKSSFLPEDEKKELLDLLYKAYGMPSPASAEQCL
Protocol: 1. Adenosine Deaminase Inhibiting Action
The enzymatic reaction was conducted at 25° C. in a 0.05M phosphate buffer (pH=7.5). Thus, a reaction solution comprising 800 μl of substrate solution (adenosine), 100 μl of a solution to be tested and 100 μl of enzyme solution (adenosine deaminase of type VII; mucous membrane of intestinal tract of calf) was reacted for 5 minutes and the reaction was stopped by adding 100 μl of acetic acid. Then the amount of inosine produced was determined by means of an HPLC to measure the inhibiting activity. The test was conducted for various substrate concentrations and Ki values were measured by Lineweaver-Burk plots.

[3] = system: rats administered with puromycin aminonucleoside (nephritis model); test: Therapeutic action to nephritis (puromycin aminonucleoside rats); type: in vivo, male rat (SD strain); conditions: 50 mg/kg oral, five consecutive days
Protocol: 2. Therapeutic Action to Nephritis.
When puromycin aminonucleoside is administered to rats, symptoms similar to protein-rich urine, hypoproteinemia, hyperlipemia, nephrotic syndrome, etc, result and, therefore, rats which are administered with puromycin aminonucleoside have been used as pathological model animals for nephritis. The chemical name for puromycin aminonucleoside is 3'-amino-3'-deoxy-N,N-dimethyladenosine. A method by Endo, et al. [Sogo Rinsho, vol. 38, no. 5, page 821 (1989)] was somewhat modified and used as a test method here. Thus, a solution of puromycin aminonucleoside was dissolved in a physiological saline liquid and administered just once to a tail vein of a male rat (SD strain) of about 200 g body weight at a dose of 100 mg/kg (the initial of zero-th day).
The compound to be tested was dissolved in a physiological saline liquid and was given orally for five consecutive days from the zero-th day at a dose of 50 mg/kg each. After 24 hours, the accumulated urine was collected and the amount of urine and the amount of protein in the urine was measured. Blood was collected on the tenth day and the total protein in serum, creatinine in serum and urea nitrogen were measured.
Examples of the results are given in Tables 2 and where the control is those animals injected only with the puromycin aminonucleoside: […]

[4] = system: Human peripheral polymorphonuclear leukocyte (PML); test: Inhibitory action against activated oxygen (superoxide) generation; type: cell-based; conditions: FMLP 10^-7 M; for inhibition at 100 µM: 1 × 10^-4 M; for inhibition at 10 µM: 1 × 10^-5 M; for inhibition at 1 µM: 1 × 10^-6 M
Protocol: 3. Inhibitory Action against Activated Oxygen Generation
Human peripheral polymorphonuclear leukocyte (PML, 2×10^6 cells) prepared in a conventional method, bovine heart cytochrome C type-III (75 nmol), cytocharasin (5 μg) and tested drug were mixed with HEPES-buffered saline solution (final 1 ml) and incubated for 5 minutes at 37° C. N-Formyl-methionyl-leucyl-phenylalanine (FMLP) was added (final 10^-7 M) and incubated for 5 minutes. Immediately after the incubation, the reaction mixture was centrifuged at 4° C., and then the absorbance at 550 nm of the supernatant was measured with a spectrophotometer.
An excess amount of bovine liver superoxide dismutase (SOD) was added to the reaction mixture and the absorbance of the supernatant was also measured in the same manner as above as a blank value.
A portion of adenosine deaminase (ADA) may be removed during the preparation of human peripheral PML. Therefore, the inhibitory action against the generation of superoxide of the tested drug was measured in the same manner as mentioned above, adding 0.02 units of bovine liver ADA with human peripheral PML.
The inhibition against superoxide generation was calculated by the following equation, and examples of the results are given in Table 4. [formula]

[5] = with ADA (0.02 units bovine liver)

## CNc1nc(C)nc2c1ncn2[C@@H]1O[C@H](CO)[C@@H](O)[C@H]1OC [Compound 27, 2, N^6,2'-O-Trimethyladenosine]
[1]; 10 mg/kg intravenous before ischemia, treated paw
  Paw Weight, Treated: 254.4 ± 6.6 mg
[1]; 10 mg/kg intravenous, from weight difference between treated and untreated paws
  Inhibition (of ischemic edema): 67.7%
[2]
  pKi: 6.07
[3]; blood on tenth day
  Serum Creatinine: 0.71 mg/dL
  Total Protein in Serum: 7.44 g/dL
  Urea Nitrogen: 31.9 mg/dL
[3]; 1st day
  Amount of Protein in Urine: 0 mg/day
[3]; 2nd day
  Amount of Protein in Urine: 29.2 mg/day
[3]; 3rd day
  Amount of Protein in Urine: 33.8 mg/day
[3]; 4th day
  Amount of Protein in Urine: 122.5 mg/day
[3]; 5th day
  Amount of Protein in Urine: 399.8 mg/day
[3]; 6th day
  Amount of Protein in Urine: 443.7 mg/day
[3]; 7th day
  Amount of Protein in Urine: 558.7 mg/day
[3]; 8th day
  Amount of Protein in Urine: 595.6 mg/day
[3]; 9th day
  Amount of Protein in Urine: 593.5 mg/day
[3]; 10th day
  Amount of Protein in Urine: 528.6 mg/day
[4]; [5]
  inhibition at 100 µM: 88%
  inhibition at 10 µM: 77%
  inhibition at 1 µM: 34%
[4]; with ADA (0.02 units bovine liver), 1 × 10^-7 M
  inhibition at 0.1 µM: 10%
[4]; without ADA, 1 × 10^-3 M
  inhibition at 1000 µM: 100%
[4]; without ADA
  inhibition at 100 µM: 79%
  inhibition at 10 µM: 22%
  inhibition at 1 µM: 2%
